Measured values published in patent publication US4957911A, “Benzazecine derivatives for cognitive and memory functions” (Hoffmann-La Roche Inc., priority 1986, dated 1990).

Legend:
[1] = Acute toxicity, single oral administration to mice (LD50); settings: mouse, in vivo
Text: Moreover, the Table contains data for the acute toxicity (LD50 in mg/kg in the case of single oral administration to mice).

rats = test: Passive avoidance in Skinner box: reversal of scopolamine-induced blocking of short-time memory; format: in vivo, rat; settings: scopolamine 0.3 mg/kg i.p. and distilled water p.o.
Text: The test apparatus is a "Skinner box" with an electrifiable grid floor (30×40 cm) and a grey plastic platform (15×15×0.8 cm) in the front right corner. Untrained male rats (100-120 g) are placed individually on the platform. As soon as they climb down on to the grid floor they receive a mild electric foot-shock (0.8 mA). The normal reaction of untrained rats is to climb back on to the platform. The foot-shock procedure must be repeated three to five times for each animal, after which the rats have acquired a "passive avoidance response", that is, they no longer attempt to descend from the platform to the grid floor.
Immediately thereafter three groups, each comprising 30 animals, are set up. The first group receives an injection (i.p.) of 0.3 mg/kg of scopolamine as well as distilled water (2 ml/kg p.o.). The second group receives an injection (i.p.) of 0.3 mg/kg of scopolamine and an oral dosage of the test substance. The third group receives only distilled water (p.o.).
Two hours later, each rat is placed once on the platform in the "Skinner box". […] The statistical significance of the difference between the results obtained in the first and in the second groups is determined by means of the Chi-Square test.
70-75% of the animals treated only with distilled water (p.o.) still remember 2-4 hours after learning the "passive avoidance response" that they should remain on the platform. […]

| Compound | LD50 [1] [mg/kg] | animals with retrograde effect on the short-time memory (rats) | duration of retrograde effect on the short-time memory (rats) [h] |
| --- | --- | --- | --- |
| CC(=O)N1CCCC(=O)c2c(Cl)cc(Cl)cc2CCC1=O [I Cl H Cl H COCH3, 4-acetyl-9,11-dichloro-1,2,4,5,6,7-hexahydro-4-benzazecine-3,8-dione] | > 5000 | – | – |
| CC(=O)N1CCCC(=O)c2c(Cl)cccc2CCC1=O [I Cl H H H COCH3, 4-acetyl-9-chloro-1,2,4,5,6,7-hexahydro-4-benzazecine-3,8-dione] | > 5000 | – | – |
| CC(=O)N1CCCC(=O)c2ccc(Cl)cc2CCC1=O [I H H Cl H COCH3, 4-acetyl-11-chloro-1,2,4,5,6,7-hexahydro-4-benzazecine-3,8-dione] | > 5000 | – | – |
| CC(=O)N1CCCC(=O)c2ccc(F)cc2CCC1=O [I H H F H COCH3, 4-acetyl-11-fluoro-1,2,4,5,6,7-hexahydro-4-benzazecine-3,8-dione] | > 5000 | – | – |
| CC(=O)N1CCCC2=C1CCc1cc(Cl)ccc12 [II H H Cl H COCH3, 4-acetyl-8-chloro-1,2,3,4,5,6-hexahydrobenzo[f]quinoline] | 2500 to 5000 | – | – |
| CN1[C@@H]2C[C@@H](OC(=O)[C@H](CO)c3ccccc3)C[C@H]1[C@@H]1O[C@@H]12 [scopolamine] | – | 85-92% | 3 to 4 |
